From patent US7414075B2, “Composition for lowering internal lipid content” (Ajinomoto Co., Inc., priority 2003, dated 2008)

Tests used:
Format in all cases: in vivo, rat
[1] = Breeding process: body weight and ingested amount of feed in rats on 20% lard food with 1% cholesterol; settings: 0.1 mmol per kg feed, mean ± SD
Method: (§1) Twenty-four nine-week old male Wistar strain rats were used and divided into four groups each comprising six rats, including a control group, a 0.1 mmol/kg capsaicin group, a 0.1 mmol/kg capsinoid group, and a 1.0 mmol/kg capsinoid group. A 20% lard food to which 1% cholesterol was added was administered as a feed to the control group. For the remaining three groups, capsaicin of 0.1 mmol per kg final concentration of the feed, capsinoid of 0.1 mmol per kg final concentration of the feed, and capsinoid of 1.0 mmol per kg final concentration of the feed, respectively, were added to the feed, similar to the control group. The capsinoid was a mixture of 4-hydroxy-3-methoxybenzyl (E)-8-methyl-6-nonenoate and 4-hydroxy-3-methoxybenzyl 8-methylnonanoate in about 2:1 ratio.
(§2) The above groups each comprising six rats were subjected to pair feeding for four weeks. Breeding of the experimental animals was conducted in each individual cage and, during the breeding period, body weight was measured once a week and ingested amount of the feed was calculated by deducting the residue from the administered amount. Feces were collected for three days before dissection. After completion of breeding, the rats were sacrificed and dissected. Blood was collected. The liver, the fat around the kidney, and the fat around the epididymis were each separately excised and weighed. Furthermore, the ratio of the excised organs to the total body weight was calculated. Unless otherwise mentioned, the results in the following tables are shown in terms of mean value±standard deviation and, statistically, test of significance was conducted at p<0.05 by ANOVA and Duncan's multiple range test. In the tables, * means p<0.05.

male Wistar strain rats [2] = test: Excretion of cholesterol into feces during three days before dissection; settings: 0.1 mmol per kg feed, mean ± SD
Method: as §1
The above groups each comprising six rats were subjected to pair feeding for four weeks. Breeding of the experimental animals was conducted in each individual cage and, during the breeding period, body weight was measured once a week and ingested amount of the feed was calculated by deducting the residue from the administered amount. Feces were collected for three days before dissection. After completion of breeding, the rats were sacrificed and dissected. Blood was collected. […] Furthermore, the ratio of the excised organs to the total body weight was calculated. […]

male Wistar strain rats [3] = test: Weight of liver, fat around kidney and fat around epididymis, and ratio to total body weight; settings: 0.1 mmol per kg feed, four weeks
Method: as §1, §2

male Wistar strain rats [4] = test: Influence on serum cholesterol and arteriosclerosis index; settings: 0.1 mmol per kg feed, four weeks, * p<0.05
Method: as §1, §2
Blood was collected from the experimental animals bred as above and total cholesterol (T-chol) and HDL cholesterol (HDL-chol) in the serum was measured. More specifically, total cholesterol and HDL cholesterol were measured according to a method disclosed in “Akiko Tsujihara and Yumiko Tani: Influence of yucca saponin and pure konjak powder on lipid metabolism of rats fed with a high-fat and high-cholesterol feed: Eiyo Shokuryo Gakkaishi, vol. 51, pp. 157-163 (1998)”. The Arteriosclerosis index was calculated by (T-chol-HDL-chol)/(HDL-chol). The results are shown in Table 4, including the amount of triglyceride in the serum (TG).

With `COc1cc(CNC(=O)CCCC/C=C/C(C)C)ccc1O` [Capsaicin, capsaicin] the “Body Weight (g) on Dissected Day” value ([1]; four weeks) was 367 ± 12 g, the “Percentage Increase in Body Weight” value ([1]; four weeks) was 133 ± 4% and the “Body Weight (g) on Final Day of Breeding” value ([1]; pair feeding four weeks) was 392 ± 11 g. The “Cholesterol in Feces, Excreted Amount” value (male Wistar strain rats [2]) was 240 ± 27 mg/3 days, the “Cholesterol in Feces, Excreted Rate” value (male Wistar strain rats [2]) was 48.6 ± 3.4% and the “Fat (g) around Epididymis” value (male Wistar strain rats [3]; mean ± SD) was 4.6 ± 0.5 g. The “Fat (g) around Kidney” value (male Wistar strain rats [3]; mean ± SD) was 3.8 ± 0.6 g, the “Liver” value (male Wistar strain rats [3]; mean ± SD) was 14.4 ± 0.9 g and the “Fat (%) around Epididymis” value (male Wistar strain rats [3]; ratio to total body weight) was 1.3 ± 0.1%. For the same compound, the “Fat (%) around Kidney” value (male Wistar strain rats [3]; ratio to total body weight) was 1.0 ± 0.1%, the “Liver (%)” value (male Wistar strain rats [3]; ratio to total body weight, * p<0.05) was 3.9 ± 0.1* % and the “Arteriosclerosis Index” value (male Wistar strain rats [4]; (T-chol-HDL-chol)/(HDL-chol)) was 1.2 ± 0.4. For the same compound, the “HDL-chol (HDL cholesterol in serum)” value (male Wistar strain rats [4]; serum, mean ± SD) was 34.2 ± 6.5* mg/dl, the “T-chol (total cholesterol in serum)” value (male Wistar strain rats [4]; serum, mean ± SD) was 71.2 ± 8.1* mg/dl and the “TG (triglyceride in the serum)” value (male Wistar strain rats [4]; serum, mean ± SD) was 25.5 ± 5.3* mg/dl.
